Source: patent US20130338199A1, “Novel Niacin Compositions for Reduction of Amyloid Beta Peptide 42 (AB42) Production and for Treatment of Alzheimer's Disease” (priority 2008, published 2013)
Where two headings read alike, the source gives them in different places. Blank lines part the entries; values can stand above or below the compound they belong to.

What was measured:
[1] = tested on: Aβ42 production by human neuroblastoma SH-SY5Y cells; assay: Aβ42 production by SH-SY5Y cells, sandwich ELISA of conditioned medium; settings: for activity in reducing the production of Aβ42 (in words): cell-based assay
Experimental: We used the human Neuroblastoma SH-SY5Y cells for drug testing as a model for Aβ42 production. The cells were cultured in Dulbecco's modified Eagle's medium or Dulbecco's modified Eagle's medium/Ham's F-12 medium supplemented with 10% fetal bovine serum, 100 units/ml penicillin, and 100 μg/ml streptomycin in a humidified atmosphere of 95% air, 5% CO2 at 37° C. as per suppliers instructions. […] Cell toxicity was monitored using the MTT assay and all data reported are corrected for any cell loss.
Sandwich Enzyme-Linked Immunosorbent Assay (sELISA) for Quantization of Aβ42:
The capture antibody, detection antibody and secondary antibody as well as standard purified preparations of Aβ42 were obtained from Sigma-Aldrich. Cells were cultured for 24 h in the presence or absence of compounds and the conditioned medium was subjected to sELISA.

[2] = In vivo pharmacokinetics (plasma and brain niacin and eugenol by HPLC); design: species or system male Swiss Albino mice; settings: male, Swiss Albino, mouse
Experimental: In vivo pharmacokinetic (PK) studies were conducted in male Swiss Albino mice. Niacin-Eugenol physical mixture or Niacin-Eugenol hybrid cocrystal was administered to the animals at a dose of 0.73 mmol/kg orally (n=2 mice per time point). […] Plasma was separated by centrifugation at 4000 rpm for 10 minutes and stored in ice for analysis. Animals were sacrificed at the above time points; and brains were excised, snap frozen in liquid nitrogen and stored at −80° C. Samples were analyzed by high-performance liquid chromatography (HPLC) with UV detection. […] The precipitated proteins were removed by centrifugation at 15000 rpm at 5° C. for 10 min. The supernatant was collected in HPLC vials and kept at 4° C. for analysis. 200 mg of the brain tissue was homogenized in Acetonitrile. The resultant homogenate was centrifuged at 15000 rpm for 10 minutes at 4° C. […] Pharmacokinetic parameters were calculated using WinNonLin v5.2 software. The plasma and brain samples were analyzed for Niacin and Eugenol concentrations using HPLC under the conditions shown below: […]

[3] = tested on: human APP overexpressing Drosophila; assay: Survival of human APP overexpressing Drosophila transgenic model; assay type: in vivo, Drosophila melanogaster; settings: 100 mg/kg body weight/day with the food
Experimental: The effect of cocrystal of niacin-eugenol/eugenol was tested in a Drosophila model which over expresses the human APP protein. The creation of the APP over expressing flies and other methods for these studies are as described previously by Greeve et al (See J. Neuroscience, 2004, 24:3899-3906). The targeted over/ectopic expression of APP in the brain using UAS promoter driven APP transgene, induced by a specific GAL4 trans-driver in the Drosophila model system was used. Adult flies, a total of 80 flies (4 males and 4 females per tube, 10 tubes) were fed right after their emergence and the survival was examined until the end of 9th day. The drugs to be tested were delivered with the food.

[4] = Homo sapiens, SH-SY5Y, read-out: IC50 (μM) in cell based abeta assay

SMILES: COc1cc(C(C)=O)ccc1OC(=O)c1cccnc1 [Niacin-apocynin hybrid]
IC50 [1, 4]: 25.3 µM

SMILES: CCCc1ccc(OC(=O)c2cccnc2)c(OC)c1 [Niacin-dihydro eugenol hybrid]
IC50 ([1]; read-out: IC50 (μM) in cell based abeta assay, blocking Aβ42 secretion): > 50 µM

SMILES: COc1cc(CC2CO2)ccc1OC(=O)c1cccnc1 (stereo not drawn) [Niacin-eugenol epoxide hybrid]
IC50 [1, 4]: 17.5 µM

SMILES: Oc1ccc(C=Cc2cc(O)cc(O)c2)cc1 [resveratrol]
effect on survival compared to untreated flies ([3]; early time points): modest effect
effect on number of surviving flies compared to untreated flies ([3]; end of 9th day (FIG. 7)): no statistically different effect

Now from value to compound, other results behind:

IC50 [1, 4]: 14 µM
increase in Tmax for eugenol compared to physical mixture [2]: 4 fold
SMILES: C=CCc1ccc(OC(=O)c2cccnc2)c(OC)c1 [Niacin-eugenol hybrid, Nicotinic acid 4-allyl-2-methoxy-phenyl ester]
activity in reducing the production of Aβ42 (in words) [1]: most active among the series
activity in reducing the production of Aβ42 (in words) ([1]; listed as niacin-eugenol ester linked hybrid): most potent

IC50 [1, 4]: > 50 µM
SMILES: COc1cc(/C=C/C(=O)O)ccc1OC(=O)c1cccnc1 [Niacin-ferulic acid hybrid]

IC50 [1, 4]: 36.8 µM
SMILES: COc1ccc(/C=C\C(=O)O)cc1OC(=O)c1cccnc1 [Niacin-isofreulic acid hybrid]

IC50 [1, 4]: 44.6 µM
SMILES: COc1cc(C=O)ccc1OC(=O)c1cccnc1 [Niacin-vanillin hybrid, Nicotinic acid 4-formyl-2-methoxy-phenyl ester]

reduction of niacin IC50 in the presence of cinnamic acid ([1]; 5 μM cinnamic acid versus niacin alone): about 15%
reduction of niacin IC50 in the presence of curcumin ([1]; 5 μM curcumin versus niacin alone): about 27%
reduction of niacin IC50 in the presence of eugenol ([1]; 5 μM eugenol versus niacin alone): about 45%
reduction of niacin IC50 in the presence of meclofenamic acid ([1]; 5 μM meclofenamic acid versus niacin alone): about 33%
IC50 ([1]; Homo sapiens, SH-SY5Y, read-out: IC50 of niacin in the presence of cinnamic acid, in the presence of 5 μM of cinnamic acid): 9.8 µM
IC50 ([1]; Homo sapiens, SH-SY5Y, read-out: IC50 of niacin in the presence of curcumin, in the presence of 5 μM of curcumin): 7.5 µM
IC50 ([1]; Homo sapiens, SH-SY5Y, read-out: IC50 of niacin in the presence of eugenol, in the presence of 5 μM of eugenol): 5.9 µM
IC50 ([1]; Homo sapiens, SH-SY5Y, read-out: IC50 of niacin in the presence of meclofenamic acid, in the presence of 5 μM of meclofenamic acid): 7 µM
IC50 ([1]; Homo sapiens, SH-SY5Y, read-out: IC50 of niacin's inhibitory effect on Aβ42 production, niacin alone, SH-SY5Y cells, overnight incubation): 10.6 µM
IC50 ([1]; read-out: IC50 of niacin's inhibitory effect on Aβ42 production, niacin alone, SH-SY5Y cells, overnight incubation): ~10.2 µM
SMILES: O=C(O)c1cccnc1 [niacin, pyridine-3-carboxylic acid]
inhibitory effect of niacin on Aβ42 levels in the media ([1]; 5 and 10 μM niacin): good effect
inhibition of Aβ42 levels in the media ([1]; 25 and 50 μM niacin): 100%
